Measured values: ChEMBL document CHEMBL1130310, “C3-Thia and C3-carba isosteres of a carbocyclic influenza neuraminidase inhibitor, (3R,4R,5S)-4-acetamido-5-amino-3-propoxyl-1-cyclohexene-1-carboxylic acid” (Bioorg Med Chem Lett, 1997)

Columns and labels:
[1] = Concentration required for 50% inhibition of influenza neuraminidase incubated in rat plasma at 37 degrees Celsius prior to assay; format: cell-free; conditions: unidentified influenza virus
[2] = Concentration required for 50% inhibition of influenza neuraminidase; set-up: species or system unidentified influenza virus

| Compound | IC50 [1] | IC50 [2] |
| --- | --- | --- |
| CCCS[C@@H]1C=C(C(=O)O)C[C@H](N)[C@H]1NC(C)=O | 212 nM | – |
| CCCO[C@@H]1C=C(C(=O)O)C[C@H](N)[C@H]1NC(C)=O | – | 130 nM |
| CCCC[C@@H]1C=C(C(=O)O)C[C@H](N)[C@H]1NC(C)=O | – | 220 nM |
